# Laboratory results: US7851410B2, “Herbicidal composition” (FMC Corporation, priority 2006, dated 2010)
# Columns and labels:
# Assay type in all cases: in vivo
# Spurge = test: Pre-emergent herbicidal evaluation on Spurge (field plots, granular fertilizer compositions)
# Method: Test compositions were prepared of i) a granular fertilizer and 2,4-dinitro-N^3,N^3-dipropyl-6-(trifluoromethyl)-1,3-benzenediamine, and ii) a granular fertilizer and N-[2,4-dichloro-5-[4-(difluoromethyl)-4,5-dihydro-3-methyl-5-oxo-1H-1,2,4-triazol-1-yl]phenyl]methanesulfonamide. The test compositions were prepared to provide the desired application rates of 2,4-dinitro-N^3,N^3-dipropyl-6-(trifluoromethyl)-1,3-benzenediamine and N-[2,4-dichloro-5-[4-(difluoromethyl)-4,5-dihydro-3-methyl-5-oxo-1H-1,2,4-triazol-1-yl]phenyl]methanesulfonamide. In addition, test compositions were prepared containing mixtures of 2,4-dinitro-N^3,N^3-dipropyl-6-(trifluoromethyl)-1,3-benzenediamine and N-[2,4-dichloro-5-[4-(difluoromethyl)-4,5-dihydro-3-methyl-5-oxo-1H-1,2,4-triazol-1-yl]phenyl]methanesulfonamide with granular fertilizer that provided the specified rates of the two herbicides.
# The experimental design used randomized plots with one pre-emergent treatment either the day of planting or the day after planting and three to four replications per test trial. The size of each experimental plot was 6 feet by 30 feet.
# Percent control of the weed (Spurge) was evaluated and averaged in each experimental plot at 70 days after treatment (DAT) of each test rate.
# (§1) The results, shown as an average of the replications, were compared with results observed in untreated control plots in the same trials.
# Green Foxtail = test: Pre-emergent herbicidal evaluation on Green Foxtail (field plots, spray)
# Method: (§2) Test compositions were prepared by dilution of a 65% water-soluble granule (65 WG) formulation of 2,4-dinitro-N^3,N^3-dipropyl-6-(trifluoromethyl)-1,3-benzenediamine in a spray tank that provided the appropriate application rate of 2,4-dinitro-N^3,N^3-dipropyl-6-(trifluoromethyl)-1,3-benzenediamine. Test compositions were also prepared by dilution of a 80% wettable powder (80 WP) formulation of N-[2,4-dichloro-5-[4-(difluoromethyl)-4,5-dihydro-3-methyl-5-oxo-1H-1,2,4-triazol-1-yl]phenyl]methanesulfonamide in a spray tank that provided the appropriate application rate of N-[2,4-dichloro-5-[4-(difluoromethyl)-4,5-dihydro-3-methyl-5-oxo-1H-1,2,4-triazol-1-yl]phenyl]methanesulfonamide. In addition, test compositions were prepared containing mixtures of a 65% water-soluble granule (65 WG) formulation of 2,4-dinitro-N^3,N^3-dipropyl-6-(trifluoromethyl)-1,3-benzenediamine and a 80% wettable powder (80 WP) formulation of N-[2,4-dichloro-5-[4-(difluoromethyl)-4,5-dihydro-3-methyl-5-oxo-1H-1,2,4-triazol-1-yl]phenyl]methanesulfonamide with water that provided the specified rates of the two herbicides.
# (§3) The application of each test composition was performed with pressurized back-pack sprayers, calibrated to spray between 10 and 15 gallons per acre.
# (§4) The experimental design used randomized plots with one pre-emergent treatment either the day of planting or the day after planting and four to eight replications per test trial. The size of each experimental plot was 6 feet by 30 feet.
# Percent control of the weed (Green Foxtail) was evaluated and averaged in each experimental plot at 14 days after treatment (DAT) of each test rate.
# as §1
# Barnyard Grass = test: Pre-emergent herbicidal evaluation on Barnyard Grass (field plots, spray)
# Method: as §2, §3, §4
# Percent control of the weed (Barnyard Grass) was evaluated and averaged in each experimental plot at 14 days after treatment (DAT) of each test rate.
# as §1
# Goose Grass = test: Pre-emergent herbicidal evaluation on Goose Grass (field plots, spray)
# Method: as §2, §3, §4
# Percent control of the weed (Goose Grass) was evaluated and averaged in each experimental plot at 14 days after treatment (DAT) of each test rate.
# as §1
# Johnson Grass = test: Pre-emergent herbicidal evaluation on Johnson Grass (field plots, spray)
# Method: as §2, §3, §4
# Percent control of the weed (Johnson Grass) was evaluated and averaged in each experimental plot at 14 days after treatment (DAT) of each test rate.
# as §1
# Annual Blue Grass = test: Pre-emergent herbicidal evaluation on Annual Blue Grass (field plots, spray)
# Method: as §2, §3, §4
# Percent control of the weed (Annual Blue Grass) was evaluated and averaged in each experimental plot at 14 days after treatment (DAT) of each test rate.
# as §1
structure (smiles),measurement,setting,value
"Cc1nn(-c2cc(NS(C)(=O)=O)c(Cl)cc2Cl)c(=O)n1C(F)F [A, N-[2,4-dichloro-5-[4-(difluoromethyl)-4,5-dihydro-3-methyl-5-oxo-1H-1,2,4-triazol-1-yl]phenyl]methanesulfonamide]",Control @ 70 DAT,Spurge; 0.125 lb AI/Acre,0%
same,Control @ 70 DAT,Spurge; 0.250 lb AI/Acre,6%
same,Control @ 70 DAT,Spurge; 0.375 lb AI/Acre,6%
same,Control @ 14 DAT,Green Foxtail; 0.06 lb AI/Acre,62%
same,Control @ 14 DAT,Green Foxtail; 0.12 lb AI/Acre,76%
same,Control @ 14 DAT,Green Foxtail; 0.19 lb AI/Acre,93%
same,Control @ 14 DAT,Green Foxtail; 0.25 lb AI/Acre,97%
same,Control @ 14 DAT,Barnyard Grass; 0.06 lb AI/Acre,55%
same,Control @ 14 DAT,Barnyard Grass; 0.12 lb AI/Acre,80%
same,Control @ 14 DAT,Barnyard Grass; 0.19 lb AI/Acre,88%
same,Control @ 14 DAT,Barnyard Grass; 0.25 lb AI/Acre,93%
same,Control @ 14 DAT,Goose Grass; 0.06 lb AI/Acre,49%
same,Control @ 14 DAT,Goose Grass; 0.12 lb AI/Acre,69%
same,Control @ 14 DAT,Goose Grass; 0.19 lb AI/Acre,77%
same,Control @ 14 DAT,Goose Grass; 0.25 lb AI/Acre,79%
same,Control @ 14 DAT,Johnson Grass; 0.06 lb AI/Acre,42%
same,Control @ 14 DAT,Johnson Grass; 0.12 lb AI/Acre,67%
same,Control @ 14 DAT,Johnson Grass; 0.19 lb AI/Acre,65%
same,Control @ 14 DAT,Johnson Grass; 0.25 lb AI/Acre,70%
same,Control @ 14 DAT,Annual Blue Grass; 0.06 lb AI/Acre,37%
same,Control @ 14 DAT,Annual Blue Grass; 0.12 lb AI/Acre,47%
same,Control @ 14 DAT,Annual Blue Grass; 0.19 lb AI/Acre,62%
same,Control @ 14 DAT,Annual Blue Grass; 0.25 lb AI/Acre,60%
"CCCN(CCC)c1c([N+](=O)[O-])cc(C(F)(F)F)c(N)c1[N+](=O)[O-] [B, 2,4-dinitro-N^3,N^3-dipropyl-6-(trifluoromethyl)-1,3-benzenediamine]",Control @ 70 DAT,Spurge; 0.50 lb AI/Acre,42%
same,Control @ 70 DAT,Spurge; 0.75 lb AI/Acre,70%
same,Control @ 70 DAT,Spurge; 1.00 lb AI/Acre,60%
same,Control @ 14 DAT,Green Foxtail; 0.12 lb AI/Acre,87%
same,Control @ 14 DAT,Green Foxtail; 0.25 lb AI/Acre,91%
same,Control @ 14 DAT,Green Foxtail; 0.50 lb AI/Acre,95%
same,Control @ 14 DAT,Barnyard Grass; 0.12 lb AI/Acre,63%
same,Control @ 14 DAT,Barnyard Grass; 0.25 lb AI/Acre,69%
same,Control @ 14 DAT,Barnyard Grass; 0.50 lb AI/Acre,86%
same,Control @ 14 DAT,Goose Grass; 0.12 lb AI/Acre,76%
same,Control @ 14 DAT,Goose Grass; 0.25 lb AI/Acre,99%
same,Control @ 14 DAT,Goose Grass; 0.50 lb AI/Acre,100%
same,Control @ 14 DAT,Johnson Grass; 0.12 lb AI/Acre,42%
same,Control @ 14 DAT,Johnson Grass; 0.25 lb AI/Acre,48%
same,Control @ 14 DAT,Johnson Grass; 0.50 lb AI/Acre,77%
same,Control @ 14 DAT,Annual Blue Grass; 0.12 lb AI/Acre,45%
same,Control @ 14 DAT,Annual Blue Grass; 0.25 lb AI/Acre,38%
same,Control @ 14 DAT,Annual Blue Grass; 0.50 lb AI/Acre,58%
